Patent publication EP1310250A1, “Use of the compound 2-methoxyphenyl-1-methyl-5P-methylbenzoyl-pyrrol-2-acetamido acetate for the production of an antiinflammatory drug with prevention of gastric hypersecretion and renal impairment” (MEDOSAN Ricerca S.r.l., priority 1997, dated 1999)

Key:
[1] = test system: gastric acid secretion; test: Antisecretory activity in vivo in rat, histamine-induced acid secretion
Method: The methods used were those described by G Coruzzi, M. Adami, C. Pozzoli, E. Poli, G. Bertaccini (Pharmacology 1994;48: pages 69-76) and M. Leitold, W. Fleissig and A. Merk (Arzneim-Forsch/Drug Res. 34(I), Nr. 4, 1984).
The animals were treated in oral administration with amtolmetin guacyl 50 or 100 mg/kg, 1 h before the beginning of the perfusion with histamine. The controls received only the vehicle (CMC 1%).
After anaesthesia with urethan (1.25 g/kg i.p.), the oesophagus was ligated close to the stomach. Two cannulas of polyethylene are then inserted: one was inserted in the forestomach, the second one was inserted directly into the pyloric sphincter. The stomach was flushed with saline at 37°C (1 ml/min) and the flushed liquid, collected every 15 minutes, titred at ph 7 with NaOH 10^-2 M. The acid secretion was induced by an intravenous infusion (0.1 ml/min) of histamine (30 µmol/kg/h).
The acidity is expressed as µEqH^+/15 min.

[2] = test system: blood pressure and cardiovascular system; test: Drug safety trials on blood pressure and cardiovascular system; conditions: rat, in vivo
From the text: From a toxicological viewpoint the drug offers an excellent torability profile.

[3] = in vivo
[4] = test system: fertility, embriotoxicity and teratogenicity; test: Fertility, embryotoxicity and teratogenicity studies, rat; format: in vivo
[5] = test system: fertility, embriotoxicity and teratogenicity; test: Fertility, embryotoxicity and teratogenicity studies, rabbit; format: in vivo
[6] = test system: human lymphocites; test: Chromosome aberrations in lymphocytes cultivated in vitro; format: cell-based
[7] = test system: rat bone marrow; test: Micronucleus test; format: in vivo
[8] = test system: Carcinogenesis; test: Carcinogenesis studies, gavage over life-span; format: in vivo, rat; conditions: gavage for a period covering the animal's life-span
[9] = test system: guinea-pig isolated ileum; test: Intestinal motility in isolated ileum, various agonists; conditions: all of the traditional agonists: histamine, acetylcholine, serotonin (fig. 7, 8 and 9)
From the text: In parallel we also studied the possible effect on intestinal motility in the guinea-pig isolated ileum (b.r. No. 29) using various agonists (fig. 7, 8 and 9).

[10] = test system: rat isolated stomach strips; test: Gastric motility in isolated stomach strips, acetylcholine and serotonin as agonists; conditions: acetilcholine and serotonin as agonists (fig. 10, 11 and 12)
[11] = test system: diuresis; test: Diuresis in normally hydrated rats; format: in vivo; conditions: normally hydrated rats treated orally for 8 consecutive days (figure 13)
Method: In the course of various studies conducted on animals to show the lack of renal impairment, a test was carried out to compare the diuresis in normally hydrated rats treated orally for 8 consecutive days with amtolmeting guacyl and diclofenac, which is also a NSAID.

[12] = test system: adverse events; test: Clinical trials: tolerability, adverse events and suspensions of treatment; design: species or system man; conditions: in vivo
From the text: Interest in the amtolmetin guacyl molecule arose following a thorough analysis of the results of 31 comparative and 6 non-comparative clinical trials involving 1596 patients. […] Turthermore the physician, being aware of administering an NSAID, was expecting adverse events and could not be expected to be an impartial observer. The few cases of gastro-intestinal phenomena reported with amtolmetin guacyl were transitory and in no event accompanied by the presence of occult blood in the stools. Moreover, even in the presence of a reported side-effect it was almost never necessary to suspend treatment (0.4% of suspensions).
Following are summarized the results obtained on a total of 1596 patients in 37 clinical trials.
Confirmation of the above described advantages is the very low incidence of treatment suspension for adverse events found in clinics (Table 17), which is not the case for most of NSAIDs known in the art (Table 18).

[13] = test system: rheumatoid arthritis; test: Clinical trials: antiphlogistic activity in rheumatoid arthritis; format: in vivo, man; design: key to Antiphlogistic activity evaluation: excellent ^++++; good ^+++; poor ^++
From the text: Amtolmetin guacyl was compared with ibuprofen, indomethacin, piroxicam and tolmetin.

[14] = test system: osteoarthritis; test: Clinical trials: antiphlogistic activity in osteoarthritis; format: in vivo, man; design: key to Antiphlogistic activity evaluation: excellent ^++++; good ^+++; poor ^++
From the text: In this degenerative disease amtolmetin guacyl was compared with diclofenac, diflunisal, flurbiprofen, ibuprofen, ketoprofen, naproxen and tolmetin.

[15] = test system: extra-articular rheumatism; test: Clinical trials: antiphlogistic activity in extra-articular rheumatism; format: in vivo, man; design: key: excellent ^++++; good ^+++; poor ^++
From the text: In extra-articular rheumatism amtolmetin guacyl was compared with diclofenac, naproxen and piperazine propionate.

[16] = test system: post-traumatic arthralgia; test: Clinical trials: analgesic properties in post-traumatic arthralgia; format: in vivo, man; conditions: Amtolmetin guacyl 600mgx2-daily, Diclofenac 50mgx2-daily, 15 patients each
From the text: The same can be said in the treatment of post-traumatic arthralgia.

[17] = molecular target: T1, COX1 (cyclooxygenase 1) (Rattus norvegicus, UniProt Q63921); test: Pharmacological studies in rats: COX1 inhibition; format: in vivo; conditions: studies conducted in rats
T1 construct: from tissue; host or cells: rat (in vivo pharmacological studies; tissue not given)
T1 sequence (Q63921 27-602): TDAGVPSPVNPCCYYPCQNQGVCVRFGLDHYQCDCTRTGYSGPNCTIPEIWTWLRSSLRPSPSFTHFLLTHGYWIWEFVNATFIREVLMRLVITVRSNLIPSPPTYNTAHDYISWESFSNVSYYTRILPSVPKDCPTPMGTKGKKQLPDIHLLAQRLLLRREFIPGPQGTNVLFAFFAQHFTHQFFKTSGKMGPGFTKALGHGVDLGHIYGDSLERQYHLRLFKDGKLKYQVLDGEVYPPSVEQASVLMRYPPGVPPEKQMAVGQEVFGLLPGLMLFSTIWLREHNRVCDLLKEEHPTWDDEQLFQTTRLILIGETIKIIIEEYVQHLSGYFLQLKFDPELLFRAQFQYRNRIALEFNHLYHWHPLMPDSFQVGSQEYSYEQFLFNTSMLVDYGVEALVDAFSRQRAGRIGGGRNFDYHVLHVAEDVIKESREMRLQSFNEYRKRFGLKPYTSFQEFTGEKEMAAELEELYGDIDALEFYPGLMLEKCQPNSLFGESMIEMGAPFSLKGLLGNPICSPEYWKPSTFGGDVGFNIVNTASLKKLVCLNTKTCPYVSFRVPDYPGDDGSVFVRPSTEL

[18] = molecular target: T2, COX2 (cyclooxygenase 2) (Rattus norvegicus, UniProt P35355); test: Pharmacological studies in rats: COX2 inhibition; format: in vivo; conditions: studies conducted in rats
T2 construct: from tissue; host or cells: rat (in vivo pharmacological studies; tissue not given)
T2 sequence (P35355 18-604): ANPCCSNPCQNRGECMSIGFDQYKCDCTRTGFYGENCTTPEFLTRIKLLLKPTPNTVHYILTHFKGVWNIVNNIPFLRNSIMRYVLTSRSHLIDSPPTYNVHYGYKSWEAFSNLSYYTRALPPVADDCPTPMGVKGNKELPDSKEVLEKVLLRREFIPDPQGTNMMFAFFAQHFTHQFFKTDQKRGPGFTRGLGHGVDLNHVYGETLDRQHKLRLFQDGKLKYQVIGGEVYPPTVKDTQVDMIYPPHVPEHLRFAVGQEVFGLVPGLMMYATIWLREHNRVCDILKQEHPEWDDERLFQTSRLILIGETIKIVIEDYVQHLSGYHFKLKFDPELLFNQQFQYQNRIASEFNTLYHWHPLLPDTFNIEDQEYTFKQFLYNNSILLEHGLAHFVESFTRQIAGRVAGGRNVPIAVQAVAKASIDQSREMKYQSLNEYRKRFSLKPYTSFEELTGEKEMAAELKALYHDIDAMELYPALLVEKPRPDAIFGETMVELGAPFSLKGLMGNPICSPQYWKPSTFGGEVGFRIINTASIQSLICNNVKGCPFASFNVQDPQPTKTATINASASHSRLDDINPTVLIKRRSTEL

[19] = test system: gastric mucosa; test: Histological evaluation of the gastric mucosa by an independent laboratory; conditions: oral gavage: amtolmetin guacyl 50 mg/kg, diclofenac 7.5 mg/kg, tolmetin 66.6 mg/kg
Method: In order to obtain a histological evaluation of the results obtained in our laboratories, an independent laboratory was provided with identical samples of the material evaluated by us, under totally blind conditions.
Controls received the vehicle only, also by oral gavage. 4 h after the final administration the animals were killed by ether overdose and the stomachs removed, rinsed in saline and immersed in formalin 4%.

COc1ccccc1OC(=O)CNC(=O)Cc1ccc(C(=O)c2ccc(C)cc2)n1C [amtolmetin guacyl, 2-methoxyphenyl-1-methyl-5p-methylbenzoylpyrrol-2-acetamido acetate]
acidity ([1]; 50 mg/kg oral 1 h before histamine perfusion, time 0 min): 4 µEqH^+/15'
acidity ([1]; 50 mg/kg oral 1 h before histamine perfusion, time 15 min): 4 µEqH^+/15'
acidity ([1]; 50 mg/kg oral 1 h before histamine perfusion, time 30 min): 5 µEqH^+/15'
acidity ([1]; 50 mg/kg oral 1 h before histamine perfusion, time 45 min): 11 µEqH^+/15'
acidity ([1]; 50 mg/kg oral 1 h before histamine perfusion, time 60 min): 15 µEqH^+/15'
acidity ([1]; 50 mg/kg oral 1 h before histamine perfusion, time 75 min): 17 µEqH^+/15'
acidity ([1]; 50 mg/kg oral 1 h before histamine perfusion, time 90 min): 19 µEqH^+/15'
acidity ([1]; 50 mg/kg oral 1 h before histamine perfusion, time 105 min): 18.5 µEqH^+/15'
acidity ([1]; 50 mg/kg oral 1 h before histamine perfusion, time 120 min): 22 µEqH^+/15'
acidity ([1]; 50 mg/kg oral 1 h before histamine perfusion, time 135 min): 20 µEqH^+/15'
acidity ([1]; 100 mg/kg oral 1 h before histamine perfusion, time 0 min): 8 µEqH^+/15'
acidity ([1]; 100 mg/kg oral 1 h before histamine perfusion, time 15 min): 7 µEqH^+/15'
acidity ([1]; 100 mg/kg oral 1 h before histamine perfusion, time 30 min): 9 µEqH^+/15'
acidity ([1]; 100 mg/kg oral 1 h before histamine perfusion, time 45 min): 11 µEqH^+/15'
acidity ([1]; 100 mg/kg oral 1 h before histamine perfusion, time 60 min): 12 µEqH^+/15'
acidity ([1]; 100 mg/kg oral 1 h before histamine perfusion, time 75 min): 13 µEqH^+/15'
acidity ([1]; 100 mg/kg oral 1 h before histamine perfusion, time 90 min): 14 µEqH^+/15'
acidity ([1]; 100 mg/kg oral 1 h before histamine perfusion, time 105 min): 15 µEqH^+/15'
acidity ([1]; 100 mg/kg oral 1 h before histamine perfusion, time 120 min): 13 µEqH^+/15'
acidity ([1]; 100 mg/kg oral 1 h before histamine perfusion, time 135 min): 14 µEqH^+/15'
effects on blood pressure and on the cardiovascular system [2]: absence of effects on blood pressure and on the cardiovascular system
drug tolerability [3]: excellent drug tolerability
fertility, embriotoxicity and teratogenicity [4]: demonstrated the safety product
fertility, embriotoxicity and teratogenicity [5]: demonstrated the safety product
chromosomic aberrations [6]: absence of amtolmetin guacyl-related damage
micronucleus test [7]: absence of amtolmetin guacyl-related damage
Carcinogenesis [8]: innocuity of the product
intestinal motility [9]: decrease in motility
gastric motility [10]: clear evidence of down-regulation of motility
diuresis [11]: definite increase in diuresis
Treatment suspended % ([12]; human): 0,4%
suspensions of treatment ([12]; human): 0.4%
variations of the routine biological parameters [12]: no significant variations of the routine biological parameters were observed
Evaluation of antiphlogistic activity ([13]; 150 patients, 30 days, versus Ibuprofen, Indomethacin, Piroxicam, Tolmetin): Amtolmetin guacyl demonstrated statistical significant activity more rapid and more marked when compared to the reference NSAIDs in rheumatoid arthritis.
Antiphlogistic activity evaluation ([13]; Rheumatoid arthritis): ^++++
Evaluation of antiphlogistic activity ([14]; 550 patients, mean 80 days, versus Diclofenac, Diflunisal, Flurbiprofen, Ibuprofen, Ketoprofen, Naproxen, Tolmetin): Amtolmetin guacyl was more rapid and more active in a statistically significant manner in osteoarthritis compared to the reference NSAIDs.
Antiphlogistic activity evaluation ([14]; Osteoarthritis): ^++++
Antiphlogistic activity evaluation [15]: ^+++
Duration [16]: 360 min
Latency [16]: 20 min
Max. time effect [16]: 60 min
inhibition of COX1 [17]: inhibition
inhibition of COX2 [18]: inhibition
Histology [19]: no histological lesions
Macroscopic findings ([19]; single animals): 0
Microscopic findings ([19]; single animals): 0
